Measurements reported in patent US20150038707A1, “PROCESS FOR MAKING CGRP RECEPTOR ANTAGONISTS” (Merck Sharp & Dohme Corp., priority 2012, published 2015).

Assays:
[1] = tested on: Ae. Aegypti, Isla Mujer strain (metabolically pyrethroid resistant); experiment: Contact irritancy on metabolically resistant mosquitoes (Example 5); assay type: in vivo
Description: Four compounds of formula (I) were tested for contact irritancy (i.e., movement away from the source after physical contact) at low doses on female Aedes aegypti (Thailand strain) mosquitoes. The contact irritant response was determined by use of the contact irritant assay disclosed by Grieco et al. in “A New Classification System for the Actions of IRS Chemicals Traditionally Used for Malaria Control,” Plos One, Issue 8 (2007) (available at www.plosone.org). The assay used was a cylindrical assembly that included a metal treatment end to which 10 mosquitoes were introduced and a clear receiving chamber. The treatment end included a netting strip (nylon organdy) that was treated with the insecticide of interest at the relevant dose. A butterfly valve separated the treatment end from the remainder of the assembly.
Each composition was applied to the netting strip at a varied dose via a 1.5 ml acetone solution. Four (4) treatment concentrations were used—0.0025 nmol/cm^2, 0.025 nmol/cm^2, 0.25 nmol/cm^2 and 2.5 nmol/cm^2. Netting was allowed to dry for 15 minutes prior to placement in the cylinder. Control assays were performed with netting treated with acetone only.
For each run, 10 mosquitoes were transferred into the treatment end of the assembly and, after 30 seconds, the butterfly valve was opened. The valve was closed after 10 minutes and the number of mosquitoes in the clear end (i.e., the number of escaped mosquitoes) was tested.
The contact irritancy protocol of Example 2 was used to determine contact irritancy against mosquitoes (Ae. Aegypti) that had acquired metabolic resistance against pyrethroids. Alphacypermethrin and transfluthrin were also tested. Three mosquito strains were tested—Houston which is pyrethroid susceptible, That which is pyrethroid tolerant and Isla Mujer which is metabolically pyrethroid resistant.

[2] = tested on: Ae. Aegypti strains Houston, That and Isla Mujer; experiment: Spatial repellency on metabolically resistant mosquitoes (Example 6); assay type: in vivo
Description: The four compounds of formula I described in Example 2 were tested for spatial repellency (directed movement away from the chemical source without the insect making physical contact with the treated surface) at low doses on female Aedes aegypti (Thailand strain) mosquitoes. The spatial repellency response was determined by use of the spatial repellency assay disclosed by Grieco et al. in “A New Classification System for the Actions of IRS Chemicals Traditionally Used for Malaria Control” in Plos One, Issue 8 (2007) (available at www.plosone.org) which is incorporated herein by reference for all relevant and consistent purposes. The assay used was a cylindrical assembly that included a treatment chamber at one end and a control chamber at the other end. The treatment chamber included a netting strip (nylon organdy) that was treated with the insecticide of interest at the relevant dose. The treatment chamber and control chamber were connected by a clear cylinder and were separated from the clear cylinder by butterfly valves. Twenty (20) mosquitoes were introduced into the clear central chamber and the butterfly valves were opened after 30 seconds. After 10 minutes, the valves were closed and the number of mosquitoes in each chamber was counted.
The spatial repellency protocol of Example 3 was used to determine spatial repellency against mosquitoes (Ae. Aegypti) that had acquired metabolic resistance against pyrethroids. DDT and transfluthrin were also tested. Three mosquito strains were tested—Houston which is pyrethroid susceptible, That which is pyrethroid tolerant and Isla Mujer which is metabolically pyrethroid resistant.

[3] = tested on: Ae. aegypti Isla mujeres strain (metabolically pyrethroid resistant); experiment: Toxicity assay on treated netting (Example 7), Isla mujeres strain; assay type: in vivo; conditions: for toxicity to resistant populations compared with standard compounds: summary of Table 2
Description: Several compounds were tested to determine their toxic effect on Ae. aegypti mosquitoes. Three mosquito strains were tested—Houston which is pyrethroid susceptible, That which is pyrethroid tolerant and Isla Mujer which is metabolically pyrethroid resistant.
The toxicity assay involved a single chamber to which treated netting was added. Twenty (20) mosquitoes were transferred to the chamber. After 1 hour, the number of knocked down mosquitoes was recorded and all mosquitoes were transferred to holding cartoons. The mosquitoes were given a 10% sucrose-soaked cotton ball and returned to the insectary. Mortaility was measured after 24 hours. A control assay using acetone-treated netting was used. Six replicates were performed at each treatment concentration.

Susceptible An. Gambiae = experiment: Bottle toxicity assay (Example 8), susceptible mosquitoes; assay type: in vivo, Anopheles gambiae
Description: Several compounds were tested to determine their toxic effect on knockdown resistant Anopheles gambiae mosquitoes and susceptible mosquitoes. Acetone and different amounts of pesticides were added to 250 ml bottles. In one bottle, only acetone was added as a control. The bottles were rotated in all directions while uncapped until all acetone was evaporated and the insecticide was coated onto the inside surfaces of the bottle. A number of knockdown resistant Anopheles gambiae mosquitoes were added to the bottle. The number of dead mosquitoes was recorded at 1 hour and 24 hours.

An. Vestitipennis = experiment: Repellency field studies in experimental huts, Belize (Example 12); assay type: in vivo; conditions: for Reduction (%) vs control hut / Number Collected in Entrance: 2.5 nmole; for Number Collected in Entrance: treated hut
Description: Compound 1405 was tested in field studies in Belize at a concentration of 2.5 nmole/cm^2. The field studies involved use of huts that were equipped with entrance and exit traps. The hut design and collection procedures correspond to those disclosed by Suwonkerd et al. in “The Effect of Host Type on Movement Patters of Aedes aegypti (Diptera: Culicidae) into and out of Experimental Huts in Thailand,” J. Vector. Ecol., vol. 31 (2), p. 311-318 (2006) which is incorporated herein by reference for all relevant and consistent purposes. The huts were equipped with entrance and/or exit traps at entry and exit points (e.g., windows and doors). The huts were randomized and designated as control (no treatment) or treated (with some intervention being evaluated). The relative numbers of mosquitoes entering or leaving the treated vs. control huts was determined. An. Vestitipennis, An. Albimanus, An. Punctimacula, An. Crucians and a large number of other culicines were collected in the traps. An. Vestitipennis comprised the majority of what was collected.

[4] = Dose 0.025 nm/cm^2, Time 1 hour
[5] = Dose 0.025 nm/cm^2, Time 24 hours
[6] = Dose 0.0725 nm/cm^2, Time 1 hour
[7] = Dose 0.0725 nm/cm^2, Time 24 hours
[8] = Dose 0.125 nm/cm^2, Time 1 hour
[9] = Dose 0.125 nm/cm^2, Time 24 hours
[10] = Dose 0.25 nm/cm^2, Time 24 hours
[11] = Dose 2.5 nm/cm^2, Time 24 hours
[12] = Dose 0.025 μg/bottle, Strain Tested F122, Time 1 hour
[13] = Dose 0.025 μg/bottle, Strain Tested F122, Time 24 hours
[14] = Dose 0.025 μg/bottle, Strain Tested F123, Time 1 hour
[15] = Dose 0.025 μg/bottle, Strain Tested F123, Time 24 hours
[16] = Dose 0.25 μg/bottle, Strain Tested F122, Time 1 hour
[17] = Dose 0.25 μg/bottle, Strain Tested F122, Time 24 hours
[18] = Dose 0.25 μg/bottle, Strain Tested F123, Time 1 hour
[19] = Dose 0.25 μg/bottle, Strain Tested F123, Time 24 hours
[20] = Dose 2.5 μg/bottle, Strain Tested F122, Time 1 hour
[21] = Dose 2.5 μg/bottle, Strain Tested F122, Time 24 hours
[22] = Dose 2.5 μg/bottle, Strain Tested F123, Time 1 hour
[23] = Dose 2.5 μg/bottle, Strain Tested F123, Time 24 hours

CC1(C)C(C=C(Cl)C(F)(F)F)C1C(=O)OCc1ccc(F)c(C(F)(F)F)c1F (centres unmarked) [Compound 1405]
contact irritancy, resistant strain (FIG. 4) [1]: effective in resistant strains
spatial repellency, all strains (FIG. 5) [2]: spatial repellants for all strains
Isla mujeres (% dead (SE)) [3, 4]: 100%
Isla mujeres (% dead (SE)) [3, 5]: 11.84%
Isla mujeres (% dead (SE)) [3, 6]: 100%
Isla mujeres (% dead (SE)) [3, 7]: 9.69%
Isla mujeres (% dead (SE)) [3, 8]: 100%
Isla mujeres (% dead (SE)) [3, 9]: 9.89%
Isla mujeres (% dead (SE)) ([3]; Dose 0.25 nm/cm^2, Time 1 hour): 100%
Isla mujeres (% dead (SE)) [3, 10]: 100%
Isla mujeres (% dead (SE)) ([3]; Dose 2.5 nm/cm^2, Time 1 hour): 100%
Isla mujeres (% dead (SE)) [3, 11]: 100%
toxicity to resistant populations compared with standard compounds [3]: more toxic to resistant populations than permethrin, matfluthrin and transfluthrin
Susceptible An. Gambiae (% dead (SE)) (Susceptible An. Gambiae; Dose 0.00025 μg/bottle, Strain Tested F123, Time 1 hour): 100%
Susceptible An. Gambiae (% dead (SE)) (Susceptible An. Gambiae; Dose 0.00025 μg/bottle, Strain Tested F123, Time 24 hours): 87%
Susceptible An. Gambiae (% dead (SE)) (Susceptible An. Gambiae; Dose 0.0025 μg/bottle, Strain Tested F122, Time 1 hour): 100%
Susceptible An. Gambiae (% dead (SE)) (Susceptible An. Gambiae; Dose 0.0025 μg/bottle, Strain Tested F122, Time 24 hours): 95%
Susceptible An. Gambiae (% dead (SE)) (Susceptible An. Gambiae; Dose 0.0025 μg/bottle, Strain Tested F123, Time 1 hour): 100%
Susceptible An. Gambiae (% dead (SE)) (Susceptible An. Gambiae; Dose 0.0025 μg/bottle, Strain Tested F123, Time 24 hours): 100%
Susceptible An. Gambiae (% dead (SE)) (Susceptible An. Gambiae; [12]): 100%
Susceptible An. Gambiae (% dead (SE)) (Susceptible An. Gambiae; [13]): 100%
Susceptible An. Gambiae (% dead (SE)) (Susceptible An. Gambiae; [14]): 100%
Susceptible An. Gambiae (% dead (SE)) (Susceptible An. Gambiae; [15]): 100%
Susceptible An. Gambiae (% dead (SE)) (Susceptible An. Gambiae; [16]): 100%
Susceptible An. Gambiae (% dead (SE)) (Susceptible An. Gambiae; [17]): 100%
Susceptible An. Gambiae (% dead (SE)) (Susceptible An. Gambiae; [18]): 100%
Susceptible An. Gambiae (% dead (SE)) (Susceptible An. Gambiae; [19]): 100%
Susceptible An. Gambiae (% dead (SE)) (Susceptible An. Gambiae; [20]): 100%
Susceptible An. Gambiae (% dead (SE)) (Susceptible An. Gambiae; [21]): 100%
Susceptible An. Gambiae (% dead (SE)) (Susceptible An. Gambiae; [22]): 100%
Susceptible An. Gambiae (% dead (SE)) (Susceptible An. Gambiae; [23]): 100%
Susceptible An. Gambiae (% dead (SE)) (Susceptible An. Gambiae; Dose 25 μg/bottle, Strain Tested F123, Time 1 hour): 100%
Susceptible An. Gambiae (% dead (SE)) (Susceptible An. Gambiae; Dose 25 μg/bottle, Strain Tested F123, Time 24 hours): 100%
effectiveness as a repellent in field huts (FIGS. 6-9) (An. Vestitipennis; 2.5 nmole/cm^2, four day study): extremely effective as a repellent
Reduction (%) vs control hut (An. Vestitipennis; Day 1): 97%
Number Collected in Entrance (An. Vestitipennis; Day 1): 37
Reduction (%) vs control hut (An. Vestitipennis; Day 2): 84%
Number Collected in Entrance (An. Vestitipennis; Day 2): 99
Reduction (%) vs control hut (An. Vestitipennis; Day 3): 66%
Number Collected in Entrance (An. Vestitipennis; Day 3): 173
Reduction (%) vs control hut (An. Vestitipennis; Day 4): 65%
Number Collected in Entrance (An. Vestitipennis; Day 4): 232
Reduction (%) vs control hut (An. Vestitipennis; Total of days 1-4): 82%
Number Collected in Entrance (An. Vestitipennis; Total of days 1-4): 541

CC1(C)C(C=C(Cl)Cl)C1C(=O)OCc1ccc(F)c(C(F)(F)F)c1F (centres unmarked) [Compound 1406]
contact irritancy, resistant strain (FIG. 4) [1]: effective in resistant strains
spatial repellency, all strains (FIG. 5) [2]: spatial repellants for all strains
Isla mujeres (% dead (SE)) ([3]; Dose 0.00725 nm/cm^2, Time 1 hour): 0%
Isla mujeres (% dead (SE)) ([3]; Dose 0.00725 nm/cm^2, Time 24 hours): 7.77%
Isla mujeres (% dead (SE)) [3, 4]: 100%
Isla mujeres (% dead (SE)) [3, 5]: 42.77%
Isla mujeres (% dead (SE)) [3, 6]: 96.29%
Isla mujeres (% dead (SE)) [3, 7]: 25.37%
Isla mujeres (% dead (SE)) [3, 8]: 100%
Isla mujeres (% dead (SE)) [3, 9]: 100%
Isla mujeres (% dead (SE)) ([3]; Dose 0.25 nm/cm^2, Time 1 hour): 100%
Isla mujeres (% dead (SE)) [3, 10]: 100%
Isla mujeres (% dead (SE)) ([3]; Dose 2.5 nm/cm^2, Time 1 hour): 100%
Isla mujeres (% dead (SE)) [3, 11]: 100%
toxicity to resistant populations compared with standard compounds [3]: more toxic to resistant populations than permethrin, matfluthrin and transfluthrin
Susceptible An. Gambiae (% dead (SE)) (Susceptible An. Gambiae; [12]): 100%
Susceptible An. Gambiae (% dead (SE)) (Susceptible An. Gambiae; [13]): 100%
Susceptible An. Gambiae (% dead (SE)) (Susceptible An. Gambiae; [14]): 100%
Susceptible An. Gambiae (% dead (SE)) (Susceptible An. Gambiae; [15]): 100%
Susceptible An. Gambiae (% dead (SE)) (Susceptible An. Gambiae; [16]): 100%
Susceptible An. Gambiae (% dead (SE)) (Susceptible An. Gambiae; [17]): 100%
Susceptible An. Gambiae (% dead (SE)) (Susceptible An. Gambiae; [18]): 100%
Susceptible An. Gambiae (% dead (SE)) (Susceptible An. Gambiae; [19]): 100%
Susceptible An. Gambiae (% dead (SE)) (Susceptible An. Gambiae; [20]): 100%
Susceptible An. Gambiae (% dead (SE)) (Susceptible An. Gambiae; [21]): 100%
Susceptible An. Gambiae (% dead (SE)) (Susceptible An. Gambiae; [22]): 100%
Susceptible An. Gambiae (% dead (SE)) (Susceptible An. Gambiae; [23]): 100%
